From article PMC11002980 (RSC Advances, 2024)

How the values were obtained:
[1] = test system: MCF-7 breast cancer cells; assay: MTT cytotoxicity assay on MCF-7 cells; assay type: cell-based; details: Homo sapiens, MCF7, read-out: MCF-7 (IC50)
EGFR^wt kinase = EGFR^wt kinase (Homo sapiens, UniProt P00533); assay: EGFR^wt kinase inhibition assay; assay type: biochemical
Sequence of EGFR^wt kinase (P00533 25-1210): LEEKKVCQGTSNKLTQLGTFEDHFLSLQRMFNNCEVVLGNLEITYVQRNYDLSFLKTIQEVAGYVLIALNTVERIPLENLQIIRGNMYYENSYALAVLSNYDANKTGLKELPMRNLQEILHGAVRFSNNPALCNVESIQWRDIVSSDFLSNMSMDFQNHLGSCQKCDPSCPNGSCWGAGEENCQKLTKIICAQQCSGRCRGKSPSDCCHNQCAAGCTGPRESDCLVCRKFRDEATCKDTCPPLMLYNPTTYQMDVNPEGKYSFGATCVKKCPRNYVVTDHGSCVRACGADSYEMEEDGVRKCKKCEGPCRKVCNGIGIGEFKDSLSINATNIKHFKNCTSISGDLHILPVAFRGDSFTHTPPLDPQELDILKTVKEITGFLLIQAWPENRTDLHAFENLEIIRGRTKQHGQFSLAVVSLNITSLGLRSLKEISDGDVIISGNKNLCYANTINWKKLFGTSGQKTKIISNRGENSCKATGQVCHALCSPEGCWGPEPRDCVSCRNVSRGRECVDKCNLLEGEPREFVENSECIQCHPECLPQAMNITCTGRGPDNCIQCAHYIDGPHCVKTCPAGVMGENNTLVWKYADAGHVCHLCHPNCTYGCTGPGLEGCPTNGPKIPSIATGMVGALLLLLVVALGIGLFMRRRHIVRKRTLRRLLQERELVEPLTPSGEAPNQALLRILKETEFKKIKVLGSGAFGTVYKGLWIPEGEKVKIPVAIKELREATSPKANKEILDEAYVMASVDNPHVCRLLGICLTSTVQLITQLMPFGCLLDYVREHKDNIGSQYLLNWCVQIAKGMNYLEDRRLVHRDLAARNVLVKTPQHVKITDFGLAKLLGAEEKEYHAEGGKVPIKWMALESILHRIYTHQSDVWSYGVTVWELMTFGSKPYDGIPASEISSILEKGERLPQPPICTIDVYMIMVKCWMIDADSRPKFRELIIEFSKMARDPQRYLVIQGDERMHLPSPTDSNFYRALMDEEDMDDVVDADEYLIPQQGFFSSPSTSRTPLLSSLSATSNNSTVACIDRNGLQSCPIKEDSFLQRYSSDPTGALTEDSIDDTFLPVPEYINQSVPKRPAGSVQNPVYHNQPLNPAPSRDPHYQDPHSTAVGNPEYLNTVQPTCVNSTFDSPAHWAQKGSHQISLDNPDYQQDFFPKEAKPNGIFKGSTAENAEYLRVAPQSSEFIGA

| SMILES | IC50 [1] [µM] | IC50 (EGFR^wt kinase) [µM] |
| --- | --- | --- |
| COc1ccc(NC(=O)C2=C(C)NC(C)=C(C(=O)Nc3ccc(OC)cc3OC)C2c2ccccc2)c(OC)c1 [HD-1, N ^3,N^5-Bis(2,4-dimethoxyphenyl)-2,6-dimethyl-4-phenyl-1,4-dihydropyridine-3,5-dicarboxamide] | 66.5 |  |
| COc1ccc(NC(=O)C2=C(C)NC(C)=C(C(=O)Nc3ccc(OC)cc3OC)C2c2ccc(Cl)cc2)c(OC)c1 [HD-2, 4-(4-Chlorophenyl)-N^3,N^5-bis(2,4-dimethoxyphenyl)-2,6-dimethyl-1,4-dihydropyridine-3,5-dicarboxamide] | 51.4 |  |
| COc1ccc(NC(=O)C2=C(C)NC(C)=C(C(=O)Nc3ccc(OC)cc3OC)C2c2cccc(Cl)c2)c(OC)c1 [HD-3, 4-(3-Chlorophenyl)-N^3,N^5-bis(2,4-dimethoxyphenyl)-2,6-dimethyl-1,4-dihydropyridine-3,5-dicarboxamide] | 59.4 |  |
| COc1ccc(NC(=O)C2=C(C)NC(C)=C(C(=O)Nc3ccc(OC)cc3OC)C2c2ccco2)c(OC)c1 [HD-4, N ^3,N^5-Bis(2,4-dimethoxyphenyl)-4-(furan-2-yl)-2,6-dimethyl-1,4-dihydropyridine-3,5-dicarboxamide] | 36 |  |
| COc1ccc(NC(=O)C2=C(C)NC(C)=C(C(=O)Nc3ccc(OC)cc3OC)C2c2ccc(O)cc2)c(OC)c1 [HD-5, N ^3,N^5-Bis(2,4-dimethoxyphenyl)-4-(4-hydroxyphenyl)-2,6-dimethyl-1,4-dihydropyridine-3,5-dicarboxamide] | 62.1 |  |
| COc1cc(NC(=O)C2=C(C)NC(C)=C(C(=O)Nc3cc(OC)c(Cl)cc3OC)C2c2ccccc2)c(OC)cc1Cl [HD-6, N ^3,N^5-Bis(4-chloro-2,5-dimethoxyphenyl)-2,6-dimethyl-4-phenyl-1,4-dihydropyridine-3,5-dicarboxamide] | 21.3 | 0.0305 ± 0.00148 |
| COc1cc(NC(=O)C2=C(C)NC(C)=C(C(=O)Nc3cc(OC)c(Cl)cc3OC)C2c2ccc(Cl)cc2)c(OC)cc1Cl [HD-7, N ^3,N^5-Bis(4-chloro-2,5-dimethoxyphenyl)-4-(4-chlorophenyl)-2,6-dimethyl-1,4-dihydropyridine-3,5-dicarboxamide] | 16.8 | 0.0265 ± 0.00142 |
| COc1cc(NC(=O)C2=C(C)NC(C)=C(C(=O)Nc3cc(OC)c(Cl)cc3OC)C2c2cccc(Cl)c2)c(OC)cc1Cl [HD-8, N ^3,N^5-Bis(4-chloro-2,5-dimethoxyphenyl)-4-(3-chlorophenyl)-2,6-dimethyl-1,4-dihydropyridine-3,5-dicarboxamide] | 18.3 | 0.0159 ± 0.0012 |
| COc1cc(NC(=O)C2=C(C)NC(C)=C(C(=O)Nc3cc(OC)c(Cl)cc3OC)C2c2ccco2)c(OC)cc1Cl [HD-9, N ^3,N^5-Bis(4-chloro-2,5-dimethoxyphenyl)-4-(furan-2-yl)-2,6-dimethyl-1,4-dihydropyridine-3,5-dicarboxamide] | 57.7 |  |
| COc1cc(NC(=O)C2=C(C)NC(C)=C(C(=O)Nc3cc(OC)c(Cl)cc3OC)C2c2ccc(O)cc2)c(OC)cc1Cl [HD-10, N ^3,N^5-Bis(4-chloro-2,5-dimethoxyphenyl)-4-(4-hydroxyphenyl)-2,6-dimethyl-1,4-dihydropyridine-3,5-dicarboxamide] | 39.6 |  |
| COc1ccc(NC(=O)C2=C(C)NC(C)=C(C(=O)Nc3cc(OC)c(Cl)cc3OC)C2c2ccccc2)c(OC)c1 (stereo not shown) [HD-11, N ^3-(4-Chloro-2,5-dimethoxyphenyl)-N^5-(2,4-dimethoxyphenyl)-2,6-dimethyl-4-phenyl-1,4-dihydropyridine-3,5-dicarboxamide] | 42.4 |  |
| COc1ccc(NC(=O)C2=C(C)NC(C)=C(C(=O)Nc3cc(OC)c(Cl)cc3OC)C2c2ccc(Cl)cc2)c(OC)c1 (stereo not shown) [HD-12, N ^3-(4-Chloro-2,5-dimethoxyphenyl)-4-(4-chlorophenyl)-N^5-(2,4-dimethoxyphenyl)-2,6-dimethyl-1,4-dihydropyridine-3,5-dicarboxamide] | 37.5 |  |
| COc1ccc(NC(=O)C2=C(C)NC(C)=C(C(=O)Nc3cc(OC)c(Cl)cc3OC)C2c2cccc(Cl)c2)c(OC)c1 (stereo not shown) [HD-13, N ^3-(4-Chloro-2,5-dimethoxyphenyl)-4-(3-chlorophenyl)-N^5-(2,4-dimethoxyphenyl)-2,6-dimethyl-1,4-dihydropyridine-3,5-dicarboxamide] | 44.1 |  |
| COc1ccc(NC(=O)C2=C(C)NC(C)=C(C(=O)Nc3cc(OC)c(Cl)cc3OC)C2c2ccco2)c(OC)c1 (stereo not shown) [HD-14, N ^3-(4-Chloro-2,5-dimethoxyphenyl)-N^5-(2,4-dimethoxyphenyl)-4-(furan-2-yl)-2,6-dimethyl-1,4-dihydropyridine-3,5-dicarboxamide] | 52.3 |  |
| COc1ccc(NC(=O)C2=C(C)NC(C)=C(C(=O)Nc3cc(OC)c(Cl)cc3OC)C2c2ccc(O)cc2)c(OC)c1 (stereo not shown) [HD-15, N ^3-(4-Chloro-2,5-dimethoxyphenyl)-N^5-(2,4-dimethoxyphenyl)-4-(4-hydroxyphenyl)-2,6-dimethyl-1,4-dihydropyridine-3,5-dicarboxamide] | 42.2 |  |
| CS(=O)(=O)CCNCc1ccc(-c2ccc3ncnc(Nc4ccc(OCc5cccc(F)c5)c(Cl)c4)c3c2)o1 [Lapatinib, reference compound] | 2.02 |  |
